Among the data in patent publication US11332459B2 (TEIJIN PHARMA LIMITED, priority 2017, dated 2022) are IC50 values, retold here.

SMILES strings stand for the structures.

The assay has as its target T1, human TRPC6 (Homo sapiens, UniProt Q9Y210).
T1 construct: expressed in transfected cells
T1 sequence (Q9Y210 1-931): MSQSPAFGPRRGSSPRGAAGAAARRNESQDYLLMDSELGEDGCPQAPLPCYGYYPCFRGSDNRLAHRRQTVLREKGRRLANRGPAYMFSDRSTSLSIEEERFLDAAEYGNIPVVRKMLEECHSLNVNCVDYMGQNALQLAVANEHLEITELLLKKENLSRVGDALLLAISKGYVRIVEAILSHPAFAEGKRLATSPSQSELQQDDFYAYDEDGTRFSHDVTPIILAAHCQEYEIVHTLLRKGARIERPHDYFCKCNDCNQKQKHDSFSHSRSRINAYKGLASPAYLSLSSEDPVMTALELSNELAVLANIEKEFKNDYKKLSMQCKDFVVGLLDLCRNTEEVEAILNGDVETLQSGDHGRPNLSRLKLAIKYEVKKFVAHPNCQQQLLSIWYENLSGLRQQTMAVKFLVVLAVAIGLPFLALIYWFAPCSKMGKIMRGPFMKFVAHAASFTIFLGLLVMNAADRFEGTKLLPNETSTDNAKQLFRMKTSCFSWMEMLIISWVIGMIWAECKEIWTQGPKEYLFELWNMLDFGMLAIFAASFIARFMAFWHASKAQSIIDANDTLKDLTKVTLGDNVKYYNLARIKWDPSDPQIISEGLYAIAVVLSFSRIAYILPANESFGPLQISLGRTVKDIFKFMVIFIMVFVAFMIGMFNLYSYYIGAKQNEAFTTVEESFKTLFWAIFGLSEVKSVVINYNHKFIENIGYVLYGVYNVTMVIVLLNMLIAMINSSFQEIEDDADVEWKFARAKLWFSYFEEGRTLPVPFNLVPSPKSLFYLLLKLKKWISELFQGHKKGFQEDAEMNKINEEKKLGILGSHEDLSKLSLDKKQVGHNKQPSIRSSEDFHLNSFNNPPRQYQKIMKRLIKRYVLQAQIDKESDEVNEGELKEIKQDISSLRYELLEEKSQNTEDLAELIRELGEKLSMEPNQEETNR
The assay can be described thus: TRPC6 calcium flux assay (FLIPR, OAG-stimulated calcium influx). In kind it is cell-based. Conditions: HEK293 cells stably transfected with human TRPC6, read-out: hTRPC6 Potency. The essentials:
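IC50 derived by plotting background-corrected peak fluorescence (180 s window, normalized to OAG-triggered signal vs buffer) against dose. Stable human TRPC6 HEK293 line was dye-loaded, exposed to compound 25 min, then challenged with 50 uM final OAG in 2 mM Ca2+ HEPES buffer pH 7.2, 0.5% DMSO.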
Background: Calcium assays in cells follow changes in intracellular calcium, usually with a dye or a luminescent sensor.
On to `N[C@@H]1CN(c2nc3cc(F)c(F)cc3n2CC(=O)N2CCC(OC(F)F)C2)CC[C@H]1F` (stereo partly drawn) [Example 626, 2-(2-((3R,4R)-3-amino-4-fluoropiperidin-1-yl)-5,6-difluoro-1H-benzo[d]imidazol-1-yl)-1-(3-(difluoromethoxy)pyrrolidin-1-yl)ethanone], for which the IC50 stood at 117 nM.
In the case of `N[C@@H]1CN(c2nc3cc(F)c(F)cc3n2Cc2ccc(F)c(F)c2)CC[C@H]1F` [Example 357, (3R,4R)-1-(1-(3,4-difluorobenzyl)-5,6-difluoro-1H-benzimidazol-2-yl)-4-fluoro-3-piperidinamine], the IC50 stood at 24.5 nM.
Regarding `N#Cc1ccc(Cn2c(N3CC[C@H](F)[C@H](N)C3)nc3c(Cl)cc(Cl)cc32)nc1` [Example 59, 6-((2-((3R,4S)-3-amino-4-fluoropiperidin-1-yl)-4,6-dichloro-1H-benzo[d]imidazol-1-yl)methyl)nicotinonitrile], the IC50 was 0.256 nM.
In the case of `CC(C#N)CN(C)C(=O)Cn1c(N2CC[C@@H](F)[C@H](N)C2)nc2cc(F)c(F)cc21` (mixture of isomers) [Example 621, 2-(2-((3R,4R)-3-amino-4-fluoropiperidin-1-yl)-5,6-difluoro-1H-benzo[d]imidazol-1-yl)-N-(2-cyanopropyl)-N-methylacetamide] it was 75.3 nM; in that of `N[C@@H]1CN(c2nc3cc(F)c(F)cc3n2[C@H]2CCN(C3CC3)C2=O)CC[C@H]1F` [Example 549, (S)-3-(2-((3R,4R)-3-amino-4-fluoropiperidin-1-yl)-5,6-difluoro-1H-benzo[d]imidazol-1-yl)-1-cyclopropylpyrrolidin-2-one], 410 nM.
